From ChEMBL document CHEMBL1201862, “PubChem BioAssay data set” (2004)
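How tested: cells in 96-well plates exposed to compound for 48 hours at five concentrations. GI50 = concentration required for 50% inhibition of growth.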 Activity calls are given as the source filed them. Cut-off read from the data, not from the text of the source: active = GI50 up to about 1.1 µM and inactive = higher.

Columns and labels:
Test in all cases: DTP human tumour cell line panel, 48 h
MCF7 = system: MCF7
OVCAR-5 = system: OVCAR-5
MDA-MB-435 = system: MDA-MB-435
OVCAR-3 = system: OVCAR-3
EKVX = system: EKVX
KM12 = system: KM12
U-251 = system: U-251
HCT-116 = system: HCT-116
HCT-15 = system: HCT-15
HCC 2998 = system: HCC 2998
OVCAR-4 = system: OVCAR-4
NCI-H226 = system: NCI-H226
NCI-H522 = system: NCI-H522
HOP-62 = system: HOP-62
PC-3 = system: PC-3
SF-268 = system: SF-268
UO-31 = system: UO-31
SK-MEL-28 = system: SK-MEL-28
A549 = system: A549
Malme-3M = system: Malme-3M

SMILES | GI50 (MCF7) | GI50 (OVCAR-5) | GI50 (MDA-MB-435) | GI50 (OVCAR-3) | GI50 (EKVX) | GI50 (KM12) | GI50 (U-251) | GI50 (HCT-116) | GI50 (HCT-15) [µM] | GI50 (HCC 2998) | GI50 (OVCAR-4) | GI50 (NCI-H226) | GI50 (NCI-H522) | GI50 (HOP-62) | GI50 (PC-3) | GI50 (SF-268) | GI50 (UO-31) | GI50 (SK-MEL-28) | GI50 (A549) | GI50 (Malme-3M)
CC1(C)OC2OC(C(=O)c3ccccc3)C3OC(C)(C)OC3C2O1 (centres undefined) | > 100 µM (inactive) | > 100 µM (inactive) | > 100 µM (inactive) | > 100 µM (inactive) | > 100 µM (inactive) | > 100 µM (inactive) | > 100 µM (inactive) | > 100 µM (inactive) | > 100 | > 100 µM (inactive) | > 100 µM (inactive) | > 100 µM (inactive) | > 100 µM (inactive) | > 100 µM (inactive) | > 100 µM (inactive) | > 100 µM (inactive) | > 100 µM (inactive) | – | – | –
O=C(OCCN=C1c2ccccc2CCc2ccccc21)c1ccccc1 | > 100 µM (inactive) | > 100 µM (inactive) | > 100 µM (inactive) | > 100 µM (inactive) | > 100 µM (inactive) | > 100 µM (inactive) | > 100 µM (inactive) | > 100 µM (inactive) | > 100 | > 100 µM (inactive) | > 100 µM (inactive) | 53.1 µM (inactive) | – | > 100 µM (inactive) | > 100 µM (inactive) | > 100 µM (inactive) | > 100 µM (inactive) | > 100 µM (inactive) | > 100 µM (inactive) | > 100 µM (inactive)
CCc1nc(N)c2nc(-c3ccc(C#N)cc3)oc2n1 | > 100 µM (inactive) | > 100 µM (inactive) | > 100 µM (inactive) | > 100 µM (inactive) | > 100 µM (inactive) | > 100 µM (inactive) | – | > 100 µM (inactive) | > 100 | > 100 µM (inactive) | – | > 100 µM (inactive) | > 100 µM (inactive) | > 100 µM (inactive) | > 100 µM (inactive) | > 100 µM (inactive) | > 100 µM (inactive) | > 100 µM (inactive) | > 100 µM (inactive) | –
Cc1ccccc1CN1CC2=C(CCN(Cc3ccccc3)C2=O)N2CCN=C12 | 4.86 µM (inactive) | 8.41 µM (inactive) | 4.74 µM (inactive) | 4.48 µM (inactive) | 6.32 µM (inactive) | 46.2 µM (inactive) | 4.8 µM (inactive) | 4.06 µM (inactive) | 5.04 | 4.06 µM (inactive) | 3.27 µM (inactive) | 3.56 µM (inactive) | 3.73 µM (inactive) | 9.16 µM (inactive) | 3.58 µM (inactive) | 6.87 µM (inactive) | 6.81 µM (inactive) | 29.2 µM (inactive) | 4.76 µM (inactive) | –
CC1=C(C#N)c2nc3ccccc3n2C(=O)C1(C)CCO (centres undefined) | > 100 µM (inactive) | > 100 µM (inactive) | > 100 µM (inactive) | > 100 µM (inactive) | > 100 µM (inactive) | – | > 100 µM (inactive) | > 100 µM (inactive) | > 100 | > 100 µM (inactive) | > 100 µM (inactive) | > 100 µM (inactive) | > 100 µM (inactive) | > 100 µM (inactive) | > 100 µM (inactive) | > 100 µM (inactive) | > 100 µM (inactive) | > 100 µM (inactive) | > 100 µM (inactive) | > 100 µM (inactive)
O=C(Nc1ccccc1)N1CC(CN2CCN(c3ccccc3)CC2)OC1=O (centres undefined) | > 100 µM (inactive) | > 100 µM (inactive) | > 100 µM (inactive) | – | > 100 µM (inactive) | > 100 µM (inactive) | > 100 µM (inactive) | > 100 µM (inactive) | > 100 | > 100 µM (inactive) | > 100 µM (inactive) | > 100 µM (inactive) | 80.9 µM (inactive) | > 100 µM (inactive) | > 100 µM (inactive) | > 100 µM (inactive) | > 100 µM (inactive) | > 100 µM (inactive) | > 100 µM (inactive) | > 100 µM (inactive)
CCOP(=O)(OCC)C(C)(CC)N/C(N)=N/C#N (centres undefined) | > 100 µM (inactive) | > 100 µM (inactive) | > 100 µM (inactive) | > 100 µM (inactive) | > 100 µM (inactive) | > 100 µM (inactive) | > 100 µM (inactive) | > 100 µM (inactive) | > 100 | > 100 µM (inactive) | > 100 µM (inactive) | > 100 µM (inactive) | – | > 100 µM (inactive) | > 100 µM (inactive) | > 100 µM (inactive) | > 100 µM (inactive) | > 100 µM (inactive) | > 100 µM (inactive) | > 100 µM (inactive)
